Results as given in the kinase profiling compilation of Christmann-Franck et al. (2016).
Blank lines part the entries; values can stand above or below the compound they belong to.

Experiments:
Experiment in all cases: KINOMEscan competition binding
Details in all cases: compound 10.0 µM
[1] = system: RET (human), P07949 [V804L]
MAPKAPK5 (human) = MAPKAPK5 (human) (UniProt Q8IW41)
[2] = system: RET (human), P07949 [M918T]
SRPK1 (human) = SRPK1 (human) (UniProt Q96SB4)
[3] = system: EGFR (human), P00533 [L858R]
AKT3 (human) = AKT3 (human) (UniProt Q9Y243)
TYRO3 (human) = TYRO3 (human) (UniProt Q06418)
FRK (human) = FRK (human) (UniProt P42685)
SIK1 (human) = SIK1 (human) (UniProt P57059)
ZAP70 (human) = ZAP70 (human) (UniProt P43403)
BMPR2 (human) = BMPR2 (human) (UniProt Q13873)
CDK17 (human) = CDK17 (human) (UniProt Q00537)
PTK6 (human) = PTK6 (human) (UniProt Q13882)
[4] = system: RET (human), P07949 [V804M]
RET (human), P07949 [V804M], sequence (P07949 whole entry V804M, looked up): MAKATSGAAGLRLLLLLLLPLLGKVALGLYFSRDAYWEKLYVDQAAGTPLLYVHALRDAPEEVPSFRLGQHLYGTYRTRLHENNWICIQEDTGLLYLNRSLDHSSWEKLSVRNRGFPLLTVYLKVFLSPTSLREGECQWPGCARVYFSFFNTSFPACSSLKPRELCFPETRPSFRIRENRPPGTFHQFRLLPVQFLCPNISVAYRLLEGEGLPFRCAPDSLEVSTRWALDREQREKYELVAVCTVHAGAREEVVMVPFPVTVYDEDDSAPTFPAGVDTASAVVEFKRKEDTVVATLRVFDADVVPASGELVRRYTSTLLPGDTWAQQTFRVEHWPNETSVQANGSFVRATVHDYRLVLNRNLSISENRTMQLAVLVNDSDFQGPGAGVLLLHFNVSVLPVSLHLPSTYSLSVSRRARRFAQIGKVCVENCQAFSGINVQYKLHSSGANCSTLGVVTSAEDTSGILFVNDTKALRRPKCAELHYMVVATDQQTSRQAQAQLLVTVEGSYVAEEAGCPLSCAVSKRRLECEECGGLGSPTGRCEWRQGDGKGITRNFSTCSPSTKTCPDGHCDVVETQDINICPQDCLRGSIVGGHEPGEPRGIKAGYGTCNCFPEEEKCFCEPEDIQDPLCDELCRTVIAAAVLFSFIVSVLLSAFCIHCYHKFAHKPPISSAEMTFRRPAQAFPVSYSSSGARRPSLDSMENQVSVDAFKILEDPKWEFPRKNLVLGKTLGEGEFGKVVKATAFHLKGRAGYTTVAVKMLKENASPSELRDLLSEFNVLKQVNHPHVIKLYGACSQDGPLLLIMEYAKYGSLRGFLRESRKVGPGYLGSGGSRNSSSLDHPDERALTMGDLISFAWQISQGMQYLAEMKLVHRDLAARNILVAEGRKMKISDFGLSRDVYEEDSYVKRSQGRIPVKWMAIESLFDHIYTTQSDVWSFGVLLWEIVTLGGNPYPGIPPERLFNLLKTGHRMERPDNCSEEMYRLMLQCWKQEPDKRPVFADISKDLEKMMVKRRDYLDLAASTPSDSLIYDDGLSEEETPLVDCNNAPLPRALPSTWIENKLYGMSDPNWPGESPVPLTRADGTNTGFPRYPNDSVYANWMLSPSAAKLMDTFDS

FES (human) = FES (human) (UniProt P07332)
BTK (human) = BTK (human) (UniProt Q06187)
AKT1 (human) = AKT1 (human) (UniProt P31749)
BMX (human) = BMX (human) (UniProt P51813)
PAK4 (human) = PAK4 (human) (UniProt O96013)
MAPKAPK2 (human) = MAPKAPK2 (human) (UniProt P49137)
[5] = system: EGFR (human), P00533 [752-759 del]
PKN1 (human) = PKN1 (human) (UniProt Q16512)
PKN1 (human), sequence (Q16512 whole entry, looked up): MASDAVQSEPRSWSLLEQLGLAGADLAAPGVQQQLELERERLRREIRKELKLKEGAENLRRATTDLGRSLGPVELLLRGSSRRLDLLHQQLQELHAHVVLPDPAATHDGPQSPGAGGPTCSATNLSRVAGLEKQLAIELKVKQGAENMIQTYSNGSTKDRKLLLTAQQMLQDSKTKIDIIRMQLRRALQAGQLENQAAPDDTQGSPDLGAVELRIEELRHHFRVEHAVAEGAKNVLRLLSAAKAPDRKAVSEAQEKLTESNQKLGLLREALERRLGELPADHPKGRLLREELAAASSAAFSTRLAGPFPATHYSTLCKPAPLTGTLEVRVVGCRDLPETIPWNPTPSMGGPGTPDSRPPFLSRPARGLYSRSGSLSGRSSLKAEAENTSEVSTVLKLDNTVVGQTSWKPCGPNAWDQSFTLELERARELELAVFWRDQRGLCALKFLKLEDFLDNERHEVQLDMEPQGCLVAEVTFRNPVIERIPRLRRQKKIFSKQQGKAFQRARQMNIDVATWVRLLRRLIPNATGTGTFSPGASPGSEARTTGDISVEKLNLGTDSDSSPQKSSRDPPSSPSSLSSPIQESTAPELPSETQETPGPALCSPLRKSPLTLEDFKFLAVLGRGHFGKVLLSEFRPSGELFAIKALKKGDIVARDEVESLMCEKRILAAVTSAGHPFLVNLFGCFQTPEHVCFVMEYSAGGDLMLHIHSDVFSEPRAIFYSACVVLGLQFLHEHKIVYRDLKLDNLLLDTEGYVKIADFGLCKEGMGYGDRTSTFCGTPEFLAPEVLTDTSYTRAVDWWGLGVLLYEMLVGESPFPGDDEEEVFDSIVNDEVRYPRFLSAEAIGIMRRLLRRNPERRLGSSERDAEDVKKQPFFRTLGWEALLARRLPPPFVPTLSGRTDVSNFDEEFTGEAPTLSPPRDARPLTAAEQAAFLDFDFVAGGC

CDK8 (human) = CDK8 (human) (UniProt P49336)
STK10 (human) = STK10 (human) (UniProt O94804)
EPHA7 (human) = EPHA7 (human) (UniProt Q15375)
CAMK2A (human) = CAMK2A (human) (UniProt Q9UQM7)
NEK1 (human) = NEK1 (human) (UniProt Q96PY6)
MAP3K4 (human) = MAP3K4 (human) (UniProt Q9Y6R4)
ULK3 (human) = ULK3 (human) (UniProt Q6PHR2)
ULK3 (human), sequence (Q6PHR2 whole entry, looked up): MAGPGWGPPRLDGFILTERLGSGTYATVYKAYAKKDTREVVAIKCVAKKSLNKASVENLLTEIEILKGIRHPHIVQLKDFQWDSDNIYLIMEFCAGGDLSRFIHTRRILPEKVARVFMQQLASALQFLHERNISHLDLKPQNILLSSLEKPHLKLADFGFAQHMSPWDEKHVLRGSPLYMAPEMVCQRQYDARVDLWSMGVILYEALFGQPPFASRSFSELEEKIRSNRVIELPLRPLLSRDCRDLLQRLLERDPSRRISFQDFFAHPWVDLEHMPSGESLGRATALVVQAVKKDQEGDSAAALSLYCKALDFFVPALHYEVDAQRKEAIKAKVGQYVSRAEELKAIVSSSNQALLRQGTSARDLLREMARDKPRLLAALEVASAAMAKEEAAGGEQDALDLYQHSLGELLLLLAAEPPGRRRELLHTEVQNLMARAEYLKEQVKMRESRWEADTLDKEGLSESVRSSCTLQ

ERBB2 (human) = ERBB2 (human) (UniProt P04626)
[6] = system: ABL1 (human), P00519 [H396P]
ACVRL1 (human) = ACVRL1 (human) (UniProt P37023)
PTK2B (human) = PTK2B (human) (UniProt Q14289)
FGR (human) = FGR (human) (UniProt P09769)
NEK6 (human) = NEK6 (human) (UniProt Q9HC98)
NEK6 (human), sequence (Q9HC98 whole entry, looked up): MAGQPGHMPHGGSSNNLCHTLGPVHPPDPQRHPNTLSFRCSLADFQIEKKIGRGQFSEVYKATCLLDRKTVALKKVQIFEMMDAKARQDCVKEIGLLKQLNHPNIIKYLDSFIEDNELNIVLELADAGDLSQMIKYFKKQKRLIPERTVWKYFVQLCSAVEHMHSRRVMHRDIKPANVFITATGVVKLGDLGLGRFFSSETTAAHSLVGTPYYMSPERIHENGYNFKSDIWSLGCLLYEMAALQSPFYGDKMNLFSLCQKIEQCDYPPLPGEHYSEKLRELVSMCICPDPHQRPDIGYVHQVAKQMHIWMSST

RET (human) = RET (human) (UniProt P07949)
RET (human), sequence (P07949 whole entry, looked up): as the sequence (P07949 whole entry V804M, looked up) above, with M804V counted along it

PIK3CA (human) = PIK3CA (human) (UniProt P42336)
PIK3CA (human), sequence (P42336 whole entry, looked up): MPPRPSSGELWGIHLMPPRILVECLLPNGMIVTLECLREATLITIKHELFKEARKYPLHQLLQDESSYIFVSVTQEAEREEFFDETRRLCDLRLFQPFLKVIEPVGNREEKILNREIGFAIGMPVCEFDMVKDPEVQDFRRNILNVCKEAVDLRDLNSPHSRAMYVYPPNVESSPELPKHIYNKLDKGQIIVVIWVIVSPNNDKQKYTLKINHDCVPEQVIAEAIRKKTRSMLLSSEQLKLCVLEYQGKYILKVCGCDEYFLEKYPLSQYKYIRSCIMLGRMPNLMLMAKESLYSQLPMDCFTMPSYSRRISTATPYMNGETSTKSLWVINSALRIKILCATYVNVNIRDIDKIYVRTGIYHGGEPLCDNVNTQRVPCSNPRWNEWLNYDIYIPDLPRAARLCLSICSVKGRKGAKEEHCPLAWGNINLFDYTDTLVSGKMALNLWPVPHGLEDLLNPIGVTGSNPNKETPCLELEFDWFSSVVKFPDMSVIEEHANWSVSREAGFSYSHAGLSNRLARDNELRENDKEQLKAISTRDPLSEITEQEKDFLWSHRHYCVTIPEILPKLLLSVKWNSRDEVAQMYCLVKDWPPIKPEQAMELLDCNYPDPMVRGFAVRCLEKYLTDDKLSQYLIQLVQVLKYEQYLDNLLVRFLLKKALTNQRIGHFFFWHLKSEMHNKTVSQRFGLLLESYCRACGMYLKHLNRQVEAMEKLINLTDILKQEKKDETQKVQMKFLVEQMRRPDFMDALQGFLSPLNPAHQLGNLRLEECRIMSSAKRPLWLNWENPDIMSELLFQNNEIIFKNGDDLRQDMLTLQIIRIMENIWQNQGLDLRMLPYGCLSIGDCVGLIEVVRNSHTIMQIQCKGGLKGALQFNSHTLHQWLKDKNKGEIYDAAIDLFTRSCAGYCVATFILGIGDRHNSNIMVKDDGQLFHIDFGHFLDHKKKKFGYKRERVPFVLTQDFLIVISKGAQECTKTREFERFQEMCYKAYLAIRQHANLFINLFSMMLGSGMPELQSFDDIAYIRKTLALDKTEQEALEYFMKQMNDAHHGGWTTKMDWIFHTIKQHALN

EPHA8 (human) = EPHA8 (human) (UniProt P29322)
MAPK7 (human) = MAPK7 (human) (UniProt Q13164)
[7] = system: PIK3CA (human), P42336 [E545K]
PIK3CA (human), P42336 [E545K], sequence (P42336 whole entry E545K, looked up): as the sequence (P42336 whole entry, looked up) above, with E545K counted along it

EPHA3 (human) = EPHA3 (human) (UniProt P29320)
TNK2 (human) = TNK2 (human) (UniProt Q07912)
TNK2 (human), sequence (Q07912 whole entry, looked up): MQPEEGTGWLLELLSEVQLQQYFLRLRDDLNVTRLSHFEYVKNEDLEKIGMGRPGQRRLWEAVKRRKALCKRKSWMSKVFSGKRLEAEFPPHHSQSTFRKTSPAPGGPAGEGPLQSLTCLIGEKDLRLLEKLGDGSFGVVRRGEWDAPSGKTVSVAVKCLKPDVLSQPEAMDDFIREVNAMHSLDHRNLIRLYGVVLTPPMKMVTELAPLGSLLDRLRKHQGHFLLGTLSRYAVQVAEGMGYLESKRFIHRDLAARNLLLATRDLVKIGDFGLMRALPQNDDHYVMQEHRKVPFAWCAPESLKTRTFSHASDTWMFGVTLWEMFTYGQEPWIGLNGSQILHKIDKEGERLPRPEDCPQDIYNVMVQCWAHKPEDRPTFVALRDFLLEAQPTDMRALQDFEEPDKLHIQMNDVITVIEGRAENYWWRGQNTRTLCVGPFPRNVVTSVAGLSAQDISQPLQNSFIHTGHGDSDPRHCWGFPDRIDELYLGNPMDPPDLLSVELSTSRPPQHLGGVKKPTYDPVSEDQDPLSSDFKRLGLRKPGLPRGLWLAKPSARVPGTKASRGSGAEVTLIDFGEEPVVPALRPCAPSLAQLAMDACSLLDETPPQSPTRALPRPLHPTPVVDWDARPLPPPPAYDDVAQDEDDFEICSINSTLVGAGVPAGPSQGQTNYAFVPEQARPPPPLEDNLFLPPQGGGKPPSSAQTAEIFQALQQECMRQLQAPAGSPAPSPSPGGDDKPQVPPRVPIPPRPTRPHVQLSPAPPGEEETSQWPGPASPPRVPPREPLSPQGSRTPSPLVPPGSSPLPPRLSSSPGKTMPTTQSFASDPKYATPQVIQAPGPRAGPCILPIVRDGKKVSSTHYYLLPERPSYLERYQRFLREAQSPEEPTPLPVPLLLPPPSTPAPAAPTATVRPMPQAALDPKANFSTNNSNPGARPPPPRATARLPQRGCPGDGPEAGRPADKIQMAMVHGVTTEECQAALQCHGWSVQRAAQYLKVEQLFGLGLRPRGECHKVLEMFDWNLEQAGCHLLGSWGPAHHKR

PHKG1 (human) = PHKG1 (human) (UniProt Q16816)

RET (human), P07949 [M918T], sequence (P07949 whole entry M918T, looked up): as the sequence (P07949 whole entry V804M, looked up) above, with M804V, M918T counted along it

kinase still bound, per cent of control [1]: 100%
kinase still bound, per cent of control (MAPKAPK5 (human)): 100%
kinase still bound, per cent of control [2]: 100%
kinase still bound, per cent of control (SRPK1 (human)): 100%
kinase still bound, per cent of control [3]: 43%
kinase still bound, per cent of control (AKT3 (human)): 100%
kinase still bound, per cent of control (TYRO3 (human)): 100%
kinase still bound, per cent of control (FRK (human)): 51%
kinase still bound, per cent of control (SIK1 (human)): 100%
kinase still bound, per cent of control (ZAP70 (human)): 100%
kinase still bound, per cent of control (BMPR2 (human)): 100%
kinase still bound, per cent of control (CDK17 (human)): 100%
kinase still bound, per cent of control (PTK6 (human)): 32%
kinase still bound, per cent of control [4]: 100%
kinase still bound, per cent of control (FES (human)): 100%
kinase still bound, per cent of control (BTK (human)): 78%
kinase still bound, per cent of control (AKT1 (human)): 91%
kinase still bound, per cent of control (BMX (human)): 96%
kinase still bound, per cent of control (PAK4 (human)): 100%
kinase still bound, per cent of control (MAPKAPK2 (human)): 95%
kinase still bound, per cent of control [5]: 100%
kinase still bound, per cent of control (PKN1 (human)): 80%
kinase still bound, per cent of control (CDK8 (human)): 88%
kinase still bound, per cent of control (STK10 (human)): 100%
kinase still bound, per cent of control (EPHA7 (human)): 100%
kinase still bound, per cent of control (CAMK2A (human)): 75%
kinase still bound, per cent of control (NEK1 (human)): 96%
kinase still bound, per cent of control (MAP3K4 (human)): 100%
kinase still bound, per cent of control (ULK3 (human)): 100%
kinase still bound, per cent of control (ERBB2 (human)): 6.6%
kinase still bound, per cent of control [6]: 100%
kinase still bound, per cent of control (ACVRL1 (human)): 100%
kinase still bound, per cent of control (PTK2B (human)): 100%
kinase still bound, per cent of control (FGR (human)): 100%
kinase still bound, per cent of control (NEK6 (human)): 100%
kinase still bound, per cent of control (RET (human)): 100%
kinase still bound, per cent of control (PIK3CA (human)): 100%
kinase still bound, per cent of control (EPHA8 (human)): 100%
kinase still bound, per cent of control (MAPK7 (human)): 30%
kinase still bound, per cent of control [7]: 97%
kinase still bound, per cent of control (EPHA3 (human)): 81%
kinase still bound, per cent of control (TNK2 (human)): 20%
kinase still bound, per cent of control (PHKG1 (human)): 54%
SMILES: COc1cc(N2CCN(C)CC2)ccc1Nc1ncc2c(n1)N(C)c1ccccc1N(C)C2=O

kinase still bound, per cent of control [1]: 89%
kinase still bound, per cent of control (MAPKAPK5 (human)): 69%
kinase still bound, per cent of control [2]: 96%
kinase still bound, per cent of control (SRPK1 (human)): 100%
kinase still bound, per cent of control [3]: 63%
kinase still bound, per cent of control (AKT3 (human)): 100%
kinase still bound, per cent of control (TYRO3 (human)): 76%
kinase still bound, per cent of control (FRK (human)): 13%
kinase still bound, per cent of control (SIK1 (human)): 81%
kinase still bound, per cent of control (ZAP70 (human)): 74%
kinase still bound, per cent of control (BMPR2 (human)): 100%
kinase still bound, per cent of control (CDK17 (human)): 85%
kinase still bound, per cent of control (PTK6 (human)): 56%
kinase still bound, per cent of control [4]: 88%
kinase still bound, per cent of control (FES (human)): 100%
kinase still bound, per cent of control (BTK (human)): 82%
kinase still bound, per cent of control (AKT1 (human)): 100%
kinase still bound, per cent of control (BMX (human)): 100%
kinase still bound, per cent of control (PAK4 (human)): 84%
kinase still bound, per cent of control (MAPKAPK2 (human)): 89%
kinase still bound, per cent of control [5]: 78%
kinase still bound, per cent of control (PKN1 (human)): 91%
kinase still bound, per cent of control (CDK8 (human)): 100%
kinase still bound, per cent of control (STK10 (human)): 100%
kinase still bound, per cent of control (EPHA7 (human)): 92%
kinase still bound, per cent of control (CAMK2A (human)): 44%
kinase still bound, per cent of control (NEK1 (human)): 77%
kinase still bound, per cent of control (MAP3K4 (human)): 71%
kinase still bound, per cent of control (ULK3 (human)): 100%
kinase still bound, per cent of control (ERBB2 (human)): 89%
kinase still bound, per cent of control [6]: 82%
kinase still bound, per cent of control (ACVRL1 (human)): 99%
kinase still bound, per cent of control (PTK2B (human)): 88%
kinase still bound, per cent of control (FGR (human)): 98%
kinase still bound, per cent of control (NEK6 (human)): 35%
kinase still bound, per cent of control (RET (human)): 85%
kinase still bound, per cent of control (PIK3CA (human)): 97%
kinase still bound, per cent of control (EPHA8 (human)): 89%
kinase still bound, per cent of control (MAPK7 (human)): 0.1%
kinase still bound, per cent of control [7]: 74%
kinase still bound, per cent of control (EPHA3 (human)): 71%
kinase still bound, per cent of control (TNK2 (human)): 25%
kinase still bound, per cent of control (PHKG1 (human)): 69%
SMILES: COc1cc(N2CCN(C)CC2)ccc1Nc1ncc2c(n1)N(C)c1sccc1C(=O)N2C

kinase still bound, per cent of control [1]: 100%
kinase still bound, per cent of control (MAPKAPK5 (human)): 63%
kinase still bound, per cent of control [2]: 98%
kinase still bound, per cent of control (SRPK1 (human)): 100%
kinase still bound, per cent of control [3]: 100%
kinase still bound, per cent of control (AKT3 (human)): 90%
kinase still bound, per cent of control (TYRO3 (human)): 100%
kinase still bound, per cent of control (FRK (human)): 100%
kinase still bound, per cent of control (SIK1 (human)): 100%
kinase still bound, per cent of control (ZAP70 (human)): 100%
kinase still bound, per cent of control (BMPR2 (human)): 100%
kinase still bound, per cent of control (CDK17 (human)): 100%
kinase still bound, per cent of control (PTK6 (human)): 100%
kinase still bound, per cent of control [4]: 100%
kinase still bound, per cent of control (FES (human)): 100%
kinase still bound, per cent of control (BTK (human)): 100%
kinase still bound, per cent of control (AKT1 (human)): 100%
kinase still bound, per cent of control (BMX (human)): 100%
kinase still bound, per cent of control (PAK4 (human)): 100%
kinase still bound, per cent of control (MAPKAPK2 (human)): 100%
kinase still bound, per cent of control [5]: 100%
kinase still bound, per cent of control (PKN1 (human)): 100%
kinase still bound, per cent of control (CDK8 (human)): 100%
kinase still bound, per cent of control (STK10 (human)): 100%
kinase still bound, per cent of control (EPHA7 (human)): 100%
kinase still bound, per cent of control (CAMK2A (human)): 100%
kinase still bound, per cent of control (NEK1 (human)): 100%
kinase still bound, per cent of control (MAP3K4 (human)): 100%
kinase still bound, per cent of control (ULK3 (human)): 100%
kinase still bound, per cent of control (ERBB2 (human)): 88%
kinase still bound, per cent of control [6]: 88%
kinase still bound, per cent of control (ACVRL1 (human)): 98%
kinase still bound, per cent of control (PTK2B (human)): 100%
kinase still bound, per cent of control (FGR (human)): 100%
kinase still bound, per cent of control (NEK6 (human)): 100%
kinase still bound, per cent of control (RET (human)): 100%
kinase still bound, per cent of control (PIK3CA (human)): 100%
kinase still bound, per cent of control (EPHA8 (human)): 92%
kinase still bound, per cent of control (MAPK7 (human)): 65%
kinase still bound, per cent of control [7]: 99%
kinase still bound, per cent of control (EPHA3 (human)): 100%
kinase still bound, per cent of control (TNK2 (human)): 92%
kinase still bound, per cent of control (PHKG1 (human)): 98%
SMILES: CN1CCN(c2ccc(C(=O)Nc3ncc4c(n3)N(C)c3ccccc3C(=O)N4C)cc2)CC1
